Laboratory results from patent US5362915A, “Phenyl-substituted cycloalkenyl compounds useful as PDE IV inhibitors” (SmithKline Beecham Pharma GmbH, priority 1990, dated 1994).

Tests used:
[1] = target: c-AMP phosphodiesterase (erythrocytes); experiment: Inhibition of Cyclic AMP Phosphodiesterase; format: biochemical; details: erythrocyte phosphodiesterase extract
Protocol: The procedure used was that described by Arch, J. R. S. and Newsholme, E. A. in Biochem. J. 158, 603, (1976):
Erythrocytes were obtained from Na-citrate (16 mM; 0.1 ml/ml blood) anticoagulated blood by repeated centrifugation with removal of the buff coat and washing with an isotonic buffer (composition in mM: NaCl 13.7, KCl 4, CaCl2.2 H2 O 1.8, Na2 HPO4.12 H2 O 0.8, NaH2 PO4 0.2, MgSO4.7 H2 O 0.7, Hepes 3.4; pH 7.4).
The phosphodiesterase was extracted by mixing the erythrocytes with 4 volumes of 7 mM phosphate buffer, pH7.4, followed by sonification (3×10 sec; 100 W) and then centrifuging for 30 min at 4200×g.
All supernatants were diluted in the extraction medium and assayed for phosphodiesterase activity within 6 hours of preparation, using the radiochemical procedure described in the above mentioned reference.

[2] = system: PDE Ic (Ca^2 +/calmodulin-stimulated); details: guinea-pig heart; cited from earlier work
[3] = system: PDE Ib (Ca^2 +/calmodulin-stimulated); details: porcine aorta; cited from earlier work
[4] = system: PDE IV (Ro 20-1724-inhibited); details: human monocyte; cited from earlier work
PDE III (cGMP-inhibited) = details: guinea-pig heart; cited from earlier work

**Q.** With `COc1ccc(C2=CC(=O)CC2)cc1OC` [Example 1, 1-(3,4-Dimethoxyphenyl)-cyclopent-1,2-ene-3-one] as the compound, how does the Ki [1] read?
**A.** 10900 nM

**Q.** Which Ki [1] does the source give for `COc1ccc(C2=CC(=O)CC2)cc1OC1CCCC1` [Example 2, 1-(3-(Cyclopentyloxy-4-methoxy)-phenyl)-cyclopent-1,2-ene-3-one] here?
**A.** 1100 nM

**Q.** Which Ki [1] does the source give for `COc1ccc(C2=CC(=O)CCC2)cc1OC1CCCC1` [Example 3] here?
**A.** 700 nM

**Q.** With `COc1ccc(C2=CC(=O)CCC2)cc1OC` [Example 4, 1-(3,4-Dimethoxyphenyl)-cyclohex-1,2-ene-3-one] as the compound, how does the Ki [1] read?
**A.** 3000 nM

**Q.** Which Ki [1] does the source give for `COc1ccc(C2CCCCC2)cc1OC1CCCC1` [Example 5, 1-Methoxy-2-cyclopentyloxy-4-cyclohexyl-benzene] here?
**A.** 2100 nM

**Q.** Which Ki [1] does the source give for `COc1ccc(C2CCCCC2)cc1OC` [Example 6, 1,2-Dimethoxy-4-cyclohexyl-benzene] here?
**A.** 14100 nM

**Q.** Which Km [2] does the source give for `Nc1nc2c(ncn2[C@@H]2O[C@@H]3COP(=O)(O)O[C@H]3[C@H]2O)c(=O)[nH]1` [cGMP] here?
**A.** 2 µM

**Q.** And the Km [3]?
**A.** 5 µM

**Q.** And the Km [4]?
**A.** 38 µM

**Q.** And the Km (PDE III (cGMP-inhibited))?
**A.** 8 µM
